Biological target: Epidermal growth factor receptor (Homo sapiens, UniProt P00533)
Assay: Wild Type EGFR and Mutant EGFR Kinase Inhibition Test

Epidermal growth factor receptor, sequence (P00533 whole entry): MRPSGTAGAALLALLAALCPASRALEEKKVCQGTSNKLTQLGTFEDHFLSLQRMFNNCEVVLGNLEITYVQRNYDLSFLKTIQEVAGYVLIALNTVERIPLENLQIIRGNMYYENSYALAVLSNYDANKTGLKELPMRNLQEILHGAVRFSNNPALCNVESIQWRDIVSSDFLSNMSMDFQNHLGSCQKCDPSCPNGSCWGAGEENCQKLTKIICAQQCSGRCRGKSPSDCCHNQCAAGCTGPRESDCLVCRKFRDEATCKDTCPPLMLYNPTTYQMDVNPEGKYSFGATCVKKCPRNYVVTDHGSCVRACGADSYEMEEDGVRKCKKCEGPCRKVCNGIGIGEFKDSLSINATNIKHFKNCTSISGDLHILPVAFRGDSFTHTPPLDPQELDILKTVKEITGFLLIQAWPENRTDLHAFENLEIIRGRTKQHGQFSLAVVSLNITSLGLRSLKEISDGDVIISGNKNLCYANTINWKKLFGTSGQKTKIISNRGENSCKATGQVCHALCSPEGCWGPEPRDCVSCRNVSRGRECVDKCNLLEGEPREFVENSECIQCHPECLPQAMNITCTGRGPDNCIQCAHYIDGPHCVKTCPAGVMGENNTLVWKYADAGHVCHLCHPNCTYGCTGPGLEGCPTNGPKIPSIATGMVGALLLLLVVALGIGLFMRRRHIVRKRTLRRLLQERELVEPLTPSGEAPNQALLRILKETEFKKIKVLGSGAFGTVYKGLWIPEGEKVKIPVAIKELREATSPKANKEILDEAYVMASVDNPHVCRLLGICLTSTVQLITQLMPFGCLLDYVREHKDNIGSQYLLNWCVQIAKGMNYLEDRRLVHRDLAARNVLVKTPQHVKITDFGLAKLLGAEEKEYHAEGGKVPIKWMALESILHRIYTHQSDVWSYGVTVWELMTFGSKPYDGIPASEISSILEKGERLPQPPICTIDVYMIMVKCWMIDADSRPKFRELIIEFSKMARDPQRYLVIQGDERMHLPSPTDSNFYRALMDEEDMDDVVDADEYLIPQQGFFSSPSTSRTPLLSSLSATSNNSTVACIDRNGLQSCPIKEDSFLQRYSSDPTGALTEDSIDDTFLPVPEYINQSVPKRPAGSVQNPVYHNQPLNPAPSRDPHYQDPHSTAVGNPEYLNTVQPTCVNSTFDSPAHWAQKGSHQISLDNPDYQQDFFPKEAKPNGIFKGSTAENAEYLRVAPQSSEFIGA

IC50: 272 nM
Structure (SMILES): C=CC(=O)Nc1cc(Nc2ncc(Cl)c(-c3cnc4c(ccn4C)c3)n2)c(OC)cc1N1CCC(N(C)C)CC1 [US10435400, Compound Z-2]

Source: BindingDB's records for patent US10435400 (Shanghai Haiyan Pharmaceutical Technology, 2019)
